Measured values published in patent publication US20150344404A1, “PDK4 INHIBITOR AND USE THEREOF” (THE KITASATO INSTITUE, priority 2012, published 2015).

molecular target: recombinant human PDK4 (Homo sapiens, UniProt Q16654); test: PDK4 enzyme inhibitory activity by off-chip mobility shift assay; format: biochemical; conditions: Table 34; recombinant human PDK4, room temperature, 5 hours; read-out: IC50, PDK inhibitory activity of representative compounds
Protocol: Measurement of PDK4/PDK2 inhibitory activity by off-chip mobility shift assay: The compound solution (5 μL), 4×substrate/ATP/metal mixture (5 μL) and 2×recombinant human PDK4 (5 μL) were added to 384 well micro plate. After reacting at room temperature for 5 hours, the reaction stop solution (60 μL) was added to above solution. The substrate peptide (S) and phosphorylated peptide (P) was quantified using LabChip3000, then the inhibitory activity was calculated from the ratio (P/P+S).

Sequence of recombinant human PDK4 (Q16654 whole entry): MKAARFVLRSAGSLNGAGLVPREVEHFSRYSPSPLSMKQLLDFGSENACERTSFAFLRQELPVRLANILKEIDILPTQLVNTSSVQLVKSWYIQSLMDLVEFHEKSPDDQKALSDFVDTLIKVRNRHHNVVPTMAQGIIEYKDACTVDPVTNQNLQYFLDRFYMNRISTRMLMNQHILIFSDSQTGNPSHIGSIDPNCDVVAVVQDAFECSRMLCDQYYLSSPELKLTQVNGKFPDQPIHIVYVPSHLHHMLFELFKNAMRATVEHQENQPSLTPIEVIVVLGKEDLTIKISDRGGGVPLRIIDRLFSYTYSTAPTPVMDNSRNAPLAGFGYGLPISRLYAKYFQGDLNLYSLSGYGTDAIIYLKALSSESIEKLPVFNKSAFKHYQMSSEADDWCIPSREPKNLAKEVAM

| Compound | IC50 |
| --- | --- |
| CC1=CC(=O)c2cc(C(C)O)ccc2C1=O (racemic) [KIS92, (±)-2-methyl-6-(1-hydroxyethyl)-1,4-naphthoquinone] | 46 µM |
| CC1=CC(=O)c2ccccc2C1=O [KIS12] | 38 µM |
| O=C(O)c1ccc2c(c1)C(=O)C=CC2=O [KIS19] | 19 µM |
| O=C1CCC(=O)c2c(O)ccc(O)c21 [KIS58] | 12 µM |
| Cc1cc(N)c2ccccc2c1O [KIS61] | 27 µM |
| COC1=CC(=O)c2ccccc2C1=O [KIS69] | 26 µM |
| CC1=CC(=O)c2ccc(C(=O)O)cc2C1=O [KIS78, 7-carboxyl-2-methyl-1,4-naphthoquinone] | 46 µM |
| COC(=O)c1cc(O)c2c(c1)C(=O)C(C)=CC2=O [KIS79, 7-carbomethoxy-5-hydroxy-2-methyl-1,4-naphthoquinone] | 9 µM |
| CC1=CC(=O)c2c(O)cc(C(=O)O)cc2C1=O [KIS90, 7-carboxy-5-hydroxy-2-methyl-1,4-naphthoquinone] | 20 µM |
| CC1=CC(=O)c2cc(C(=O)O)ccc2C1=O [KIS93, 6-carboxyl-2-methyl-1,4-naphthoquinone] | 36 µM |
| COC(=O)c1ccc2c(c1)C(=O)C=C(C)C2=O [KIS95, 6-carbomethoxy-2-methyl-1,4-naphthoquinone] | 26 µM |
| CC1=CC(=O)c2cc(CO)ccc2C1=O [KIS96, 6-hydroxymethyl-2-methyl-1,4-naphthoquinone] | 30 µM |
| CC1=CC(=O)c2cc(C=O)ccc2C1=O [KIS97, 6-formyl-2-methyl-1,4-naphthoquinone] | 18 µM |
| CC1=CC(=O)c2cc(C(=O)NCC(=O)OC(C)(C)C)ccc2C1=O [KIS98, Glycine, N-[(1,4-dihydro-1,4-dioxo-2-methyl-6-naphthylenyl)carbonyl], tert-butyl ester] | 23 µM |
| CC1=CC(=O)c2cc(C(=O)NCC(=O)O)ccc2C1=O [KIS99, N-[(1,4-dihydro-1,4-dioxo-2-methyl-6-naphthylenyl)carbonyl]glycine] | 21 µM |

same assay, conditions: Table 35; recombinant human PDK4, room temperature, 5 hours; read-out: IC50

| Compound | IC50 |
| --- | --- |
| CC1=CC(=O)c2ccncc2C1=O [KIS118] | 16 µM |
| CC1=CC(=O)c2ccc(C=O)cc2C1=O [KIS126] | 22 µM |
| CCOC(=O)c1ccc2c(c1)C(=O)C=C(C)C2=O [KIS127] | 26 µM |
| CC1=CC(=O)c2ccc(CO)cc2C1=O [KIS128] | 27 µM |
| CC1=CC(=O)c2cc(C(=O)N[C@@H](CO)C(=O)O)ccc2C1=O [KIS131, N-[(1,4-dihydro-1,4-dioxo-2-methyl-6-naphthylenyl)carbonyl]serine] | 20 µM |
| CC1=C(Br)C(=O)c2ccccc2C1=O [KIS147] | 26 µM |
| CC(=O)OCc1ccc2c(c1)C(=O)C=C(C)C2=O [KIS148] | 19 µM |
| CC1=CC(=O)c2cc(C=CC(=O)NCC(=O)O)ccc2C1=O [KIS151] | 17 µM |
| C#CCNC(=O)c1ccc2c(c1)C(=O)C=C(C)C2=O [KIS153] | 36 µM |

test system: not given; test: not given; conditions: background art; cited from earlier work

| Compound | side effect |
| --- | --- |
| O=C(O)C(Cl)Cl [Dichloro acetic acid] | neurotoxicity |

test system: PDK isozymes 1, 2 and 3; test: not given; conditions: background art; cited from earlier work

| Compound | IC50 against PDK isozymes 1, 2 and 3 |
| --- | --- |
| CN(C)C(=O)c1ccc(S(=O)(=O)c2ccc(NC(=O)[C@@](C)(O)C(F)(F)F)c(Cl)c2)cc1 [AZD7545] | sub μM order |
